Measured values reported in PMC11816618, “Pharmacokinetic profile and in vivo anticancer efficacy of anagrelide administered subcutaneously in rodents” (Drug Delivery, 2025).
Read-outs that look alike come from different tables or passages of the source.

Columns and labels:
[1] = PK comparison between three administration routes (IV, PO, SC), plasma LC-MS/MS; assay type: in vivo, Sprague-Dawley rats; settings: for Vd/F: read-out: Vz/F
Procedure: The rats were purchased from SPF Biotechnology Co. Ltd. (Beijing, China). Animals were acclimated to the test facility for at least three days, during which their general health was checked by veterinary staff or other authorized personnel. Animals were kept in polycarbonate cages containing absorbent corncob bedding, with a maintained temperature range of +20-25 °C and a 12-h light/dark cycle. Animals had access to food and drinking water ad libitum during acclimation and the experiment. At the end of the study, the rats were euthanized by exposure to an increasing concentration of CO2. […] The SC formulation was prepared by dissolving micronized ANA (5 μm particle size) in an oily triglyceride ester of saturated caprylic and capric fatty acids and glycerol (Miglyol® 810 N, IOI Oleo GmbH, Hamburg, Germany). […] To evaluate plasma concentration-time profiles, blood samples were collected from the jugular vein in EDTA tubes and stored at -70 °C until further analysis. […] In the second PK analysis in rats with a longer follow-up time, blood samples were collected at 0, 30 min, 1 […], and 56 d after dosage. SD rat plasma was analyzed for ANA, 3-OH-ANA, and RL603 concentrations by Pharmaron (Beijing, China). ANA, 3-hydroxy-anagrelide (CAS No. 733043-41-9, Cat. No. sc-206647, Santa Cruz Biotechnology, Inc., Dallas, TX), and RL603 (CAS No. 327602-34-6, Cat. No. sc-391661, Santa Cruz Biotechnology, Inc., Dallas, TX) were used as reference items in calibration standards and quality control (QC) samples. The HPLC and the MS/MS (LCMS-8060) instruments were both from SHIMADZU (Kyoto, Japan), and the column used was a Raptor Biphenyl column (2.7 μm, 50 × 2.1 mm, Restek, Bellefonte, PA). The desired serial concentrations of working solutions were achieved by diluting analyte stock solution with 50% acetonitrile in water. […] These QC samples were prepared on the day of analysis in the same way as calibration standards. Carbamazepine (CAS No. 298-46-4, Sigma-Aldrich, St. Louis, MO) was used as an internal standard for all analytes. Altogether, 55 μL of standards, 55 μL of QC samples, and 55 μL of test samples (comprising 50 μL of plasma and 5 μL of blank solution) were added to 200 μL of acetonitrile containing an internal standard mixture to precipitate protein. The samples were then vortexed for 30 seconds. After centrifugation at 4000 × g (+4 °C) for 5 min, the supernatant was diluted threefold with water, and 2 μL of the diluted supernatant was injected into the LC/MS/MS system for quantitative analysis. The transitions were 256.00-198.90 m/z for anagrelide hydrochloride, 272.00-198.95 m/z for 3-hydroxy anagrelide, 216.00-198.95 m/z for RL603, and 237.20-194.10 m/z for carbamazepine. […] Plasma drug concentration-time profiles were drawn by the average plasma concentrations at specific time points using Microsoft Excel (Redmond, WA). […] Certara, Princeton, NJ) software. Averages of each variable were used when PK values were compared.

[2] = Clinical observation during the rat PK experiments; assay type: in vivo, Sprague-Dawley rats; settings: single dose IV 0.5, PO 2.5, SC 1.0, 7.0 or 35.0 mg/kg, SD rats
Procedure: To compare PK values of the three different administration routes, 11 male Sprague-Dawley® (SD) rats (6–8 weeks old) were administered a single dose of ANA either via IV injection (n = 3, 0.5 mg/kg), PO (n = 3, 2.5 mg/kg), or SC injection (n = 5, 1.0 mg/kg). To monitor the sustained release of SC ANA in the long term, 10 male SD rats were treated with a single dose of either 7.0 mg/kg (n = 5) or 35.0 mg/kg (n = 5). The rats were purchased from SPF Biotechnology Co. Ltd. (Beijing, China). Animals were acclimated to the test facility for at least three days, during which their general health was checked by veterinary staff or other authorized personnel. Animals were kept in polycarbonate cages containing absorbent corncob bedding, with a maintained temperature range of +20–25 °C and a 12-h light/dark cycle. Animals had access to food and drinking water ad libitum during acclimation and the experiment. At the end of the study, the rats were euthanized by exposure to an increasing concentration of CO2.

[3] = SC 1.0 mg/kg vs IV 0.5 mg/kg, SD rats
[4] = Sprague-Dawley, rat, plasma, single ANA dose 0.5 mg/kg IV, male SD rats, n = 3, mean ± SD
[5] = Sprague-Dawley, rat, plasma, single ANA dose 1.0 mg/kg SC in miglyol, male SD rats, n = 5, mean ± SD
[6] = Sprague-Dawley, rat, plasma, single ANA dose 2.5 mg/kg PO, male SD rats, n = 3, mean ± SD
[7] = Sprague-Dawley, rat, analyte in plasma after single ANA dose 0.5 mg/kg IV, male SD rats, n = 3, mean ± SD
[8] = Sprague-Dawley, rat, analyte in plasma after single ANA dose 1.0 mg/kg SC in miglyol, male SD rats, n = 5, mean ± SD
[9] = Sprague-Dawley, rat, analyte in plasma after single ANA dose 2.5 mg/kg PO, male SD rats, n = 3, mean ± SD

O=C1CN2Cc3c(ccc(Cl)c3Cl)N=C2N1 [Anagrelide, imidazo‐[2,1‐b] quinazolin‐2[3H]‐one, 6,7‐dichloro‐1,5‐dihydro, monohydro‐chloride]
AUClast lower with SC than with IV [1, 3]: 36%
increase of T1/2 with SC administration compared to IV [1, 3]: 25 fold
MRT inf [1, 4]: 0.51 ± 0.08 h
clearance [1, 4]: 31.9 ± 2.52 mL/min/kg
Vd ([1]; Sprague-Dawley, rat, plasma, single ANA dose 0.5 mg/kg IV, male SD rats, n = 3, mean ± SD, read-out: Vss): 0.97 ± 0.1 L/kg
CL/F [1, 5]: 101 ± 37.4 mL/min/kg
MRT inf [1, 5]: 48.1 ± 22.7 h
bioavailability [1, 5]: 33.5 ± 9.79%
Vd/F [1, 5]: 218 ± 149 L/kg
CL/F [1, 6]: 718 ± 125 mL/min/kg
MRT inf [1, 6]: 6.38 ± 1.33 h
bioavailability [1, 6]: 4.19 ± 0.7%
Vd/F [1, 6]: 634 ± 338 L/kg
AUC(0-inf) [1, 7]: 262 ± 19.9 ng·h/mL
AUC(0-t) [1, 7]: 261 ± 19.8 ng·h/mL
Cmax [1, 7]: 497 ± 17.5 ng/mL
half-life [1, 7]: 1.09 ± 0.22 h
AUC(0-inf) [1, 8]: 187 ± 62 ng·h/mL
AUC(0-t) [1, 8]: 167 ± 57.1 ng·h/mL
Cmax [1, 8]: 12.4 ± 3.14 ng/mL
half-life [1, 8]: 27.3 ± 24.4 h
AUC(0-inf) [1, 9]: 59.3 ± 9.49 ng·h/mL
AUC(0-t) [1, 9]: 51.4 ± 7.09 ng·h/mL
Cmax [1, 9]: 18 ± 2.59 ng/mL
half-life [1, 9]: 10.1 ± 4.93 h
time to compound elimination from plasma ([1]; after IV 0.5 mg/kg, SD rats): ≤ 6 h
decrease of plasma concentrations by the 8-h time point ([1]; after PO 2.5 mg/kg, SD rats): approximately 90%
time point after which plasma concentrations were no longer detectable ([1]; after SC 1.0 mg/kg, SD rats, except a few irregular observations near the quantification limit): 72 h
Tmax ([1]; analyte in plasma after single ANA dose 1.0 mg/kg SC in miglyol, male SD rats, n = 5, mean ± SD, 1 mg/kg): 0.80 ± 0.27 h
Tmax ([1]; male, Sprague-Dawley, rat, plasma, iv, 0.5 mg/kg, analyte in plasma after single ANA dose 0.5 mg/kg IV, male SD rats, n = 3, mean ± SD, read-out: Tmax): 0.083 h
Tmax ([1]; male, Sprague-Dawley, rat, plasma, po, 2.5 mg/kg, analyte in plasma after single ANA dose 2.5 mg/kg PO, male SD rats, n = 3, mean ± SD, read-out: Tmax): 1 h
Tmax ([1]; male, Sprague-Dawley, rat, plasma, sc, 1 mg/kg, analyte in plasma after single ANA dose 1.0 mg/kg SC in miglyol, male SD rats, n = 5, mean ± SD, read-out: Tmax): 1 h
clinical symptoms [2]: No abnormal clinical symptoms were observed
